Test results from patent publication US20230085307A1, “PYRIDAZINONE COMPOUND AND HERBICIDE” (NISSAN CHEMICAL CORPORATION, priority 2019, published 2023).

Assays:
velvetleaf [1] = experiment: Test Example 5: herbicidal effect by foliage application, plastic box (Table 20, symbol M); type: in vivo, velvetleaf (Abutilon theophrasti); conditions: foliage application, 320 g/ha, evaluated three weeks after application
In short: (§1)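 Sow seeds spot-wise in sterilized diluvial soil; cover with ~1.5 cm soil. Grow 14 days in greenhouse, 25° C. to 30° C. Spray foliage with emulsion diluted to predetermined amount. Rate effect after 3 weeks.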

velvetleaf [2] = experiment: Test Example 4: herbicidal effect by soil treatment (Table 19, symbol M); type: in vivo, velvetleaf (Abutilon theophrasti); conditions: 320 g/ha
In short: (§2)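 Soil-surface application: an emulsion agent diluted with water to the predetermined dose is sprayed uniformly over seeds lying under roughly 1.5 cm of sterilized diluvial soil. Boxes stay in a greenhouse at 25° C. to 30° C. Three weeks later, each species is graded on previously defined criteria.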

wild oat [3] = experiment: Test Example 4: herbicidal effect by soil treatment (Table 19, symbol I); type: in vivo, wild oat (Avena fatua); conditions: 320 g/ha
In short: as §2

green foxtail [4] = experiment: Test Example 4: herbicidal effect by soil treatment (Table 19, symbol G); type: in vivo, green foxtail (Setaria viridis); conditions: 320 g/ha
In short: as §2

persian speedwell [5] = experiment: Test Example 4: herbicidal effect by soil treatment (Table 19, symbol R); type: in vivo, Persian speedwell (Veronica persica); conditions: 320 g/ha
In short: as §2

late watergrass = experiment: Test Example 2: herbicidal activity, application during weed generation under submerged conditions (Table 17, symbol A); type: in vivo, late watergrass (Echinochloa oryzicola); conditions: AAH 320 g/ha; application during weed generation, submerged conditions
In short: (§3)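 Mixed weed seedlings in alluvial soil under a 4 cm water layer, greenhouse-grown at 25–30° C. Compound given as a diluted emulsion into the floodwater at the 1–2 leaf stage; response graded after three weeks.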

Japanese bulrush = experiment: Test Example 2: herbicidal activity, application during weed generation under submerged conditions (Table 17, symbol B); type: in vivo, Japanese bulrush (Schoenoplectus juncoides); conditions: AAH 320 g/ha; application during weed generation, submerged conditions
In short: as §3

Chinese sprangletop = experiment: Test Example 3: herbicidal effect by foliage application, Wagner pot (Table 18, symbol D); type: in vivo, chinese sprangletop (Leptochloa chinensis); conditions: 320 g/ha
In short: (§4)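 Plants were sown in alluvial soil held under 0.1–0.5 cm standing water and grown 14 days in a greenhouse at 25–30 °C. An emulsifiable formulation, water-diluted to the set dose, was then sprayed onto the foliage, and effects were scored three weeks later using previously defined criteria.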

false cleavers [6] = experiment: Test Example 4: herbicidal effect by soil treatment (Table 19, symbol Q); type: in vivo, false cleavers (Galium spurium); conditions: 320 g/ha
In short: as §2

barnyard grass [7] = experiment: Test Example 3: herbicidal effect by foliage application, Wagner pot (Table 18, symbol H); type: in vivo, barnyard grass (Echinochloa crus-galli); conditions: 320 g/ha
In short: as §4

barnyard grass [8] = experiment: Test Example 5: herbicidal effect by foliage application, plastic box (Table 20, symbol H); type: in vivo, barnyard grass (Echinochloa crus-galli); conditions: foliage application, 320 g/ha, evaluated three weeks after application
In short: as §1

windgrass [9] = experiment: Test Example 5: herbicidal effect by foliage application, plastic box (Table 20, symbol L); type: in vivo, windgrass (Apera spica-venti); conditions: foliage application, 320 g/ha, evaluated three weeks after application
In short: as §1

lambsquarters [10] = experiment: Test Example 4: herbicidal effect by soil treatment (Table 19, symbol O); type: in vivo, lambsquarters (Chenopodium album); conditions: 320 g/ha
In short: as §2

blackgrass [11] = experiment: Test Example 5: herbicidal effect by foliage application, plastic box (Table 20, symbol J); type: in vivo, blackgrass (Alopecurus myosuroides); conditions: foliage application, 320 g/ha, evaluated three weeks after application
In short: as §1

redroot pigweed [12] = experiment: Test Example 4: herbicidal effect by soil treatment (Table 19, symbol N); type: in vivo, redroot pigweed (Amaranthus retroflexus); conditions: 320 g/ha
In short: as §2

persian speedwell [13] = experiment: Test Example 5: herbicidal effect by foliage application, plastic box (Table 20, symbol R); type: in vivo, Persian speedwell (Veronica persica); conditions: foliage application, 320 g/ha, evaluated three weeks after application
In short: as §1

southern crabgrass [14] = experiment: Test Example 5: herbicidal effect by foliage application, plastic box (Table 20, symbol F); type: in vivo, southern crabgrass (Digitaria ciliaris); conditions: foliage application, 320 g/ha, evaluated three weeks after application
In short: as §1

rice flat sedge = experiment: Test Example 3: herbicidal effect by foliage application, Wagner pot (Table 18, symbol E); type: in vivo, rice flat sedge (Cyperus iria); conditions: 320 g/ha
In short: as §4

redroot pigweed [15] = experiment: Test Example 5: herbicidal effect by foliage application, plastic box (Table 20, symbol N); type: in vivo, redroot pigweed (Amaranthus retroflexus); conditions: foliage application, 320 g/ha, evaluated three weeks after application
In short: as §1

chickweed [16] = experiment: Test Example 4: herbicidal effect by soil treatment (Table 19, symbol P); type: in vivo, common chickweed (Stellaria media); conditions: 320 g/ha
In short: as §2

blackgrass [17] = experiment: Test Example 4: herbicidal effect by soil treatment (Table 19, symbol J); type: in vivo, blackgrass (Alopecurus myosuroides); conditions: 320 g/ha
In short: as §2

chickweed [18] = experiment: Test Example 5: herbicidal effect by foliage application, plastic box (Table 20, symbol P); type: in vivo, common chickweed (Stellaria media); conditions: foliage application, 320 g/ha, evaluated three weeks after application
In short: as §1

wild oat [19] = experiment: Test Example 5: herbicidal effect by foliage application, plastic box (Table 20, symbol I); type: in vivo, wild oat (Avena fatua); conditions: foliage application, 320 g/ha, evaluated three weeks after application
In short: as §1

barnyard grass [20] = experiment: Test Example 4: herbicidal effect by soil treatment (Table 19, symbol H); type: in vivo, barnyard grass (Echinochloa crus-galli); conditions: 320 g/ha
In short: as §2

Italian ryegrass [21] = experiment: Test Example 4: herbicidal effect by soil treatment (Table 19, symbol K); type: in vivo, Italian ryegrass (Lolium multiflorum); conditions: 320 g/ha
In short: as §2

lambsquarters [22] = experiment: Test Example 5: herbicidal effect by foliage application, plastic box (Table 20, symbol O); type: in vivo, lambsquarters (Chenopodium album); conditions: foliage application, 320 g/ha, evaluated three weeks after application
In short: as §1

southern crabgrass [23] = experiment: Test Example 4: herbicidal effect by soil treatment (Table 19, symbol F); type: in vivo, southern crabgrass (Digitaria ciliaris); conditions: 320 g/ha
In short: as §2

false cleavers [24] = experiment: Test Example 5: herbicidal effect by foliage application, plastic box (Table 20, symbol Q); type: in vivo, false cleavers (Galium spurium); conditions: foliage application, 320 g/ha, evaluated three weeks after application
In short: as §1

windgrass [25] = experiment: Test Example 4: herbicidal effect by soil treatment (Table 19, symbol L); type: in vivo, windgrass (Apera spica-venti); conditions: 320 g/ha
In short: as §2

oval-leafed pondweed = experiment: Test Example 2: herbicidal activity, application during weed generation under submerged conditions (Table 17, symbol C); type: in vivo, oval-leafed pondweed (Monochoria vaginalis); conditions: AAH 320 g/ha; application during weed generation, submerged conditions
In short: as §3

green foxtail [26] = experiment: Test Example 5: herbicidal effect by foliage application, plastic box (Table 20, symbol G); type: in vivo, green foxtail (Setaria viridis); conditions: foliage application, 320 g/ha, evaluated three weeks after application
In short: as §1

Italian ryegrass [27] = experiment: Test Example 5: herbicidal effect by foliage application, plastic box (Table 20, symbol K); type: in vivo, Italian ryegrass (Lolium multiflorum); conditions: foliage application, 320 g/ha, evaluated three weeks after application
In short: as §1

## CCCC(=O)Oc1c(C)nn(C)c(=O)c1-c1c(-c2ccc3c(c2)OCCO3)sc2ccc(F)cc12 [2-093]
Velvetleaf [1]
  herbicidal effect on M: velvetleaf: 5 (Herbicidal rate of 90% or more (almost completely withered))
Velvetleaf [2]
  herbicidal effect rating, M: velvetleaf: 5 (Herbicidal rate of 90% or more (almost completely withered))
Wild oat [3]
  herbicidal effect rating, I: wild oat: 0 (Herbicidal rate of 5% or less (almost no effect))
Green foxtail [4]
  herbicidal effect rating, G: green foxtail: 3 (Herbicidal rate of 40% or more and less than 70%)
Persian speedwell [5]
  herbicidal effect rating, R: persian speedwell: 5 (Herbicidal rate of 90% or more (almost completely withered))
Late watergrass
  herbicidal effect rating, A: late watergrass: 3 (Herbicidal rate of 40% or more and less than 70%)
Japanese bulrush
  herbicidal effect rating, B: Japanese bulrush: 5 (Herbicidal rate of 90% or more (almost completely withered))
Chinese sprangletop
  herbicidal effect on D (Chinese sprangletop), rating 0-5: 2 (Herbicidal rate of 20% or more and less than 40%)
False cleavers [6]
  herbicidal effect rating, Q: false cleavers: 3 (Herbicidal rate of 40% or more and less than 70%)
Barnyard grass [7]
  herbicidal effect on H (barnyard grass), rating 0-5: 5 (Herbicidal rate of 90% or more (almost completely withered))
Barnyard grass [8]
  herbicidal effect on H: barnyard grass: 3 (Herbicidal rate of 40% or more and less than 70%)
Windgrass [9]
  herbicidal effect on L: windgrass: 0 (Herbicidal rate of 5% or less (almost no effect))
Lambsquarters [10]
  herbicidal effect rating, O: lambsquarters: 5 (Herbicidal rate of 90% or more (almost completely withered))
Blackgrass [11]
  herbicidal effect on J: blackgrass: 0 (Herbicidal rate of 5% or less (almost no effect))
Redroot pigweed [12]
  herbicidal effect rating, N: redroot pigweed: 5 (Herbicidal rate of 90% or more (almost completely withered))
Persian speedwell [13]
  herbicidal effect on R: persian speedwell: 5 (Herbicidal rate of 90% or more (almost completely withered))
Southern crabgrass [14]
  herbicidal effect on F: southern crabgrass: 3 (Herbicidal rate of 40% or more and less than 70%)
Rice flat sedge
  herbicidal effect on E (rice flat sedge), rating 0-5: 5 (Herbicidal rate of 90% or more (almost completely withered))
Redroot pigweed [15]
  herbicidal effect on N: redroot pigweed: 5 (Herbicidal rate of 90% or more (almost completely withered))
Chickweed [16]
  herbicidal effect rating, P: chickweed: 4 (Herbicidal rate of 70% or more and less than 90%)
Blackgrass [17]
  herbicidal effect rating, J: blackgrass: 0 (Herbicidal rate of 5% or less (almost no effect))
Chickweed [18]
  herbicidal effect on P: chickweed: 5 (Herbicidal rate of 90% or more (almost completely withered))
Wild oat [19]
  herbicidal effect on I: wild oat: 0 (Herbicidal rate of 5% or less (almost no effect))
Barnyard grass [20]
  herbicidal effect rating, H: barnyard grass: 3 (Herbicidal rate of 40% or more and less than 70%)
Italian ryegrass [21]
  herbicidal effect rating, K: Italian ryegrass: 0 (Herbicidal rate of 5% or less (almost no effect))
Lambsquarters [22]
  herbicidal effect on O: lambsquarters: 5 (Herbicidal rate of 90% or more (almost completely withered))
Southern crabgrass [23]
  herbicidal effect rating, F: southern crabgrass: 3 (Herbicidal rate of 40% or more and less than 70%)
False cleavers [24]
  herbicidal effect on Q: false cleavers: 4 (Herbicidal rate of 70% or more and less than 90%)
Windgrass [25]
  herbicidal effect rating, L: windgrass: 0 (Herbicidal rate of 5% or less (almost no effect))
oval-leafed pondweed
  herbicidal effect rating, C: oval-leafed pondweed: 5 (Herbicidal rate of 90% or more (almost completely withered))
Green foxtail [26]
  herbicidal effect on G: green foxtail: 3 (Herbicidal rate of 40% or more and less than 70%)
Italian ryegrass [27]
  herbicidal effect on K: Italian ryegrass: 0 (Herbicidal rate of 5% or less (almost no effect))
